Reference: the NIST ThermoML archive (doi:10.1021/je201051q)

Assay: xn = mol fraction of the nth substance listed
Conditions: Gas, isochoric method

C=C(F)C(F)(F)F [2,3,3,3-tetrafluoro-1-propene] + O=C=O
Conditions	molar volume [m3/mol]
302.61 K, 742.4 kPa, x2 = 0.16	0.002948
302.61 K, 1055.6 kPa, x2 = 0.48	0.00207
302.67 K, 1296 kPa, x2 = 0.754	0.001753
302.81 K, 736.5 kPa, x2 = 0.051	0.002904
302.86 K, 1049.3 kPa, x2 = 0.574	0.002161
302.88 K, 856.1 kPa, x2 = 0.266	0.002578
302.89 K, 1732.2 kPa, x2 = 0.662	0.001231
302.96 K, 976.1 kPa, x2 = 0.365	0.002261
303.05 K, 738 kPa, x2 = 0.051	0.002904
307.54 K, 758.8 kPa, x2 = 0.16	0.002949
312.7 K, 1352.4 kPa, x2 = 0.754	0.001753
312.79 K, 1094.3 kPa, x2 = 0.574	0.002162
312.82 K, 895.4 kPa, x2 = 0.266	0.002579
312.84 K, 1814.8 kPa, x2 = 0.662	0.001232
312.92 K, 1020.4 kPa, x2 = 0.365	0.002262
312.94 K, 773.7 kPa, x2 = 0.051	0.002905
313.12 K, 778.4 kPa, x2 = 0.16	0.002949
313.12 K, 1111.4 kPa, x2 = 0.48	0.002071
322.6 K, 1062.1 kPa, x2 = 0.365	0.002263
322.75 K, 808.1 kPa, x2 = 0.051	0.002906
323.09 K, 811.8 kPa, x2 = 0.16	0.002951
323.1 K, 934.8 kPa, x2 = 0.266	0.00258
323.1 K, 1139.4 kPa, x2 = 0.574	0.002163
323.1 K, 1407.6 kPa, x2 = 0.754	0.001754
323.1 K, 1898.7 kPa, x2 = 0.662	0.001232
323.11 K, 1157.2 kPa, x2 = 0.48	0.002071
333.06 K, 1183.4 kPa, x2 = 0.574	0.002164
333.07 K, 1106.6 kPa, x2 = 0.365	0.002264
333.08 K, 844.9 kPa, x2 = 0.16	0.002952
333.08 K, 972.6 kPa, x2 = 0.266	0.002581
333.08 K, 1202.8 kPa, x2 = 0.48	0.002072
333.08 K, 1460.2 kPa, x2 = 0.754	0.001755
333.08 K, 1979.1 kPa, x2 = 0.662	0.001233
333.09 K, 843.3 kPa, x2 = 0.051	0.002907
343.03 K, 1149.4 kPa, x2 = 0.365	0.002265
343.04 K, 1010.2 kPa, x2 = 0.266	0.002582
343.04 K, 1227 kPa, x2 = 0.574	0.002165
343.05 K, 877.5 kPa, x2 = 0.16	0.002953
343.05 K, 2058.6 kPa, x2 = 0.662	0.001233
343.06 K, 877.3 kPa, x2 = 0.051	0.002909
343.07 K, 1512.6 kPa, x2 = 0.754	0.001756
343.1 K, 1248 kPa, x2 = 0.48	0.002073
352.97 K, 1292.5 kPa, x2 = 0.48	0.002074
352.99 K, 909.5 kPa, x2 = 0.16	0.002954
352.99 K, 1191.4 kPa, x2 = 0.365	0.002266
352.99 K, 1269.8 kPa, x2 = 0.574	0.002166
352.99 K, 2136.6 kPa, x2 = 0.662	0.001234
353 K, 1046.2 kPa, x2 = 0.266	0.002583
353.02 K, 910.7 kPa, x2 = 0.051	0.00291
353.02 K, 1564.1 kPa, x2 = 0.754	0.001756
362.92 K, 943.3 kPa, x2 = 0.051	0.002911
362.92 K, 1082.5 kPa, x2 = 0.266	0.002584
362.92 K, 1232.6 kPa, x2 = 0.365	0.002267
362.94 K, 1311.6 kPa, x2 = 0.574	0.002167
362.96 K, 941.6 kPa, x2 = 0.16	0.002956
362.96 K, 1337.1 kPa, x2 = 0.48	0.002075
362.96 K, 1615.2 kPa, x2 = 0.754	0.001757
362.97 K, 2214.8 kPa, x2 = 0.662	0.001234
372.89 K, 973.3 kPa, x2 = 0.16	0.002957
372.89 K, 1119 kPa, x2 = 0.266	0.002586
372.92 K, 975.7 kPa, x2 = 0.051	0.002912
372.92 K, 1354.3 kPa, x2 = 0.574	0.002167
372.92 K, 1381.3 kPa, x2 = 0.48	0.002076
372.93 K, 2291.9 kPa, x2 = 0.662	0.001235
